Experimental data reported in PubChem BioAssay (NCI).
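Values below derive from 48-hour exposures of cells grown in 96-well plates, with endpoints linearly interpolated between the two concentrations bracketing the appropriate inhibition level. TGI denotes the concentration required for complete inhibition of growth.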

Tests used:
Experiment in all cases: NCI tumour cell line growth inhibition, 48 h
KM20L2 colon = test system: KM20L2 colon
DMS 114 small cell lung = test system: DMS 114 small cell lung
LXFL 529 NSCLC = test system: LXFL 529 NSCLC
DMS 273 small cell lung = test system: DMS 273 small cell lung
DLD-1 colon = test system: DLD-1 colon
SN12K1 renal = test system: SN12K1 renal
P388 leukemia = test system: P388 leukemia
XF 498 CNS = test system: XF 498 CNS
HOP-18 NSCLC = test system: HOP-18 NSCLC
RXF-631 renal = test system: RXF-631 renal

`COc1ccc(-c2c3ccccc3c(-c3ccc(OCCCCCBr)cc3)c3ccccc23)cc1` gave a TGI (KM20L2 colon) of over 100 µM, a TGI (DMS 114 small cell lung) of over 100 µM and a TGI (LXFL 529 NSCLC) of over 100 µM. It also gave a TGI (DMS 273 small cell lung) of over 100 µM and a TGI (DLD-1 colon) of over 100 µM.

Compound `Nc1c(N=Nc2ccc(-c3ccc(N=Nc4c(O)ccc5cc(S(=O)(=O)O)cc(S(=O)(=O)O)c45)cc3)cc2)c(S(=O)(=O)O)cc2cc(S(=O)(=O)O)c(N=Nc3ccccc3)c(O)c12` has a TGI (DMS 114 small cell lung) of over 100 µM, a TGI (SN12K1 renal) of over 100 µM and a TGI (DMS 273 small cell lung) of over 100 µM. It also gave a TGI (P388 leukemia) of over 100 µM, a TGI (DLD-1 colon) of over 100 µM and a TGI (XF 498 CNS) of over 100 µM. The TGI (HOP-18 NSCLC) was over 100 µM.

Compound `OC12CCCCCC1(N1CCOCC1)c1ccccc12` (stereo not given) has a TGI (KM20L2 colon) of over 100 µM, a TGI (DMS 114 small cell lung) of over 100 µM and a TGI (LXFL 529 NSCLC) of over 100 µM. For the same compound, the TGI (DMS 273 small cell lung) was over 100 µM and the TGI (HOP-18 NSCLC) was over 100 µM.

For `COC(=O)n1c(C[P+](c2ccccc2)(c2ccccc2)c2ccccc2)cc2ccccc21`, the TGI (KM20L2 colon) was 10.7 µM, the TGI (DMS 114 small cell lung) was 9.29 µM and the TGI (LXFL 529 NSCLC) was 3.73 µM. For the same compound, the TGI (DMS 273 small cell lung) was 6.25 µM, the TGI (DLD-1 colon) was 11.4 µM and the TGI (XF 498 CNS) was 6.09 µM.

With `CC(C)(C)CC(C)(C)c1ccc(OCCOCC[N+](C)(C)Cc2ccccc2)cc1` the TGI (KM20L2 colon) was 18.8 µM, the TGI (DMS 114 small cell lung) was 4.02 µM and the TGI (DMS 273 small cell lung) was 2.57 µM. It also gave a TGI (RXF-631 renal) of 34.2 µM, a TGI (DLD-1 colon) of 20.3 µM and a TGI (HOP-18 NSCLC) of 7.32 µM.

`CC(=O)NC1=C(NCC(C)C)C(=O)c2ccccc2C1=O` showed a TGI (KM20L2 colon) of 43.9 µM, a TGI (DMS 114 small cell lung) of 31.7 µM and a TGI (LXFL 529 NSCLC) of 34.4 µM. The TGI (DMS 273 small cell lung) was 30.7 µM, the TGI (DLD-1 colon) was 40.1 µM and the TGI (XF 498 CNS) was 27 µM. It also gave a TGI (HOP-18 NSCLC) of 29.5 µM.

With `CC(=O)Nc1ccc(C(=O)N2N=C(C)/C(=C/c3ccc(O)cc3)C2=O)cc1` the TGI (DMS 114 small cell lung) was over 100 µM, the TGI (DMS 273 small cell lung) was over 100 µM and the TGI (DLD-1 colon) was over 100 µM. The TGI (XF 498 CNS) was over 100 µM.

For `C/C(=C\Cc1cc(O)ccc1O)CCc1c(C)cc(O)c(C=O)c1C`, the TGI (KM20L2 colon) was over 100 µM, the TGI (DMS 114 small cell lung) was 31.2 µM and the TGI (LXFL 529 NSCLC) was 30.2 µM. For the same compound, the TGI (DMS 273 small cell lung) was 55.4 µM, the TGI (DLD-1 colon) was 55.1 µM and the TGI (XF 498 CNS) was 45.2 µM. For the same compound, the TGI (HOP-18 NSCLC) was 53.4 µM.

Work on `O=c1c2c(nc3n1CCC3)sc1c(O)c(Br)ccc12` yielded a TGI (KM20L2 colon) of 35.9 µM, a TGI (DMS 114 small cell lung) of 32.4 µM and a TGI (DMS 273 small cell lung) of 31 µM. For the same compound, the TGI (DLD-1 colon) was over 100 µM, the TGI (XF 498 CNS) was 36.8 µM and the TGI (HOP-18 NSCLC) was over 100 µM.

In the case of `Cc1cc(=O)[nH]c(NNC(C#N)c2ccc([N+](=O)[O-])cc2)n1` (stereo not given), the TGI (KM20L2 colon) is reported as over 100 µM, the TGI (DMS 114 small cell lung) is reported as over 100 µM and the TGI (LXFL 529 NSCLC) is reported as over 100 µM. It also gave a TGI (DMS 273 small cell lung) of over 100 µM, a TGI (DLD-1 colon) of over 100 µM and a TGI (HOP-18 NSCLC) of over 100 µM.

In the case of `O=S1(=O)CCN(c2ccccc2CC(c2c[nH]c3ccccc23)c2c[nH]c3ccccc23)CC1`, the TGI (KM20L2 colon) is reported as 27.8 µM, the TGI (DMS 114 small cell lung) is reported as over 100 µM and the TGI (LXFL 529 NSCLC) is reported as 25.7 µM. For the same compound, the TGI (DMS 273 small cell lung) was 37.5 µM, the TGI (DLD-1 colon) was 21.4 µM and the TGI (HOP-18 NSCLC) was 32.7 µM.

`Cc1cc2n([O-])cccc-2[n+](=O)c1` gave a TGI (KM20L2 colon) of over 100 µM, a TGI (DMS 114 small cell lung) of over 100 µM and a TGI (LXFL 529 NSCLC) of over 100 µM. For the same compound, the TGI (DMS 273 small cell lung) was over 100 µM, the TGI (DLD-1 colon) was over 100 µM and the TGI (XF 498 CNS) was over 100 µM.

In the case of `O=C(OCc1ccccc1C1CSCSC1)c1cc(C(=O)OCc2ccccc2C2CSCSC2)c(C(=O)OCc2ccccc2C2CSCSC2)cc1C(=O)OCc1ccccc1C1CSCSC1`, the TGI (KM20L2 colon) is reported as over 100 µM, the TGI (DMS 114 small cell lung) is reported as over 100 µM and the TGI (LXFL 529 NSCLC) is reported as over 100 µM. It also gave a TGI (DMS 273 small cell lung) of over 100 µM, a TGI (DLD-1 colon) of over 100 µM and a TGI (HOP-18 NSCLC) of over 100 µM.

In the case of `COC(=O)CC(NC(=O)OCc1ccccc1)C(C(=O)OCc1ccccc1)C1(C)OCCO1` (stereo not given), the TGI (KM20L2 colon) is reported as over 100 µM, the TGI (DMS 114 small cell lung) is reported as 82.6 µM and the TGI (LXFL 529 NSCLC) is reported as 73 µM. For the same compound, the TGI (DMS 273 small cell lung) was over 100 µM, the TGI (RXF-631 renal) was over 100 µM and the TGI (DLD-1 colon) was over 100 µM. It also gave a TGI (XF 498 CNS) of 42.3 µM.

In the case of `CC1(C)COC(c2c(-c3ccccc3)noc2CS(=O)c2ccccc2)=N1` (stereo not given), the TGI (KM20L2 colon) is reported as over 100 µM, the TGI (DMS 114 small cell lung) is reported as 99.1 µM and the TGI (LXFL 529 NSCLC) is reported as over 100 µM. The TGI (DMS 273 small cell lung) was over 100 µM, the TGI (DLD-1 colon) was over 100 µM and the TGI (HOP-18 NSCLC) was 86.4 µM.
